Laboratory results published in the NIST ThermoML archive (doi:10.1021/je400395u).
Numbers after ± are expanded uncertainties.

Assay: mn = molality of the nth substance listed, in mol/kg
Conditions: 100 kPa, Liquid; for viscosity: Capillary tube (Ostwald / Ubbelohde) method; for mass density: Vibrating tube method

O=C1O[C@H]([C@@H](O)CO)C(O)=C1O [L-ascorbic acid] + O
viscosity (293.15 K, m1 = 0.1): 1.042 ± 0.022 mPa·s
viscosity (293.15 K, m1 = 0.2): 1.09 ± 0.023 mPa·s
viscosity (293.15 K, m1 = 0.2002): 1.09 ± 0.023 mPa·s
viscosity (293.15 K, m1 = 0.3): 1.128 ± 0.024 mPa·s
viscosity (293.15 K, m1 = 0.3141): 1.128 ± 0.024 mPa·s
viscosity (293.15 K, m1 = 0.4): 1.167 ± 0.024 mPa·s
mass density (293.15 K, m1 = 0.1): 1005.25 ± 0.16 kg/m3
mass density (293.15 K, m1 = 0.2): 1012.12 ± 0.17 kg/m3
mass density (293.15 K, m1 = 0.2002): 1012.12 ± 0.18 kg/m3
mass density (293.15 K, m1 = 0.3): 1018.82 ± 0.17 kg/m3
mass density (293.15 K, m1 = 0.3141): 1018.82 ± 0.18 kg/m3
mass density (293.15 K, m1 = 0.4): 1025.4 ± 0.17 kg/m3
viscosity (303.15 K, m1 = 0.1): 0.828 ± 0.017 mPa·s
viscosity (303.15 K, m1 = 0.2): 0.858 ± 0.018 mPa·s
viscosity (303.15 K, m1 = 0.2002): 0.858 ± 0.018 mPa·s
viscosity (303.15 K, m1 = 0.3): 0.894 ± 0.019 mPa·s
viscosity (303.15 K, m1 = 0.3141): 0.894 ± 0.019 mPa·s
viscosity (303.15 K, m1 = 0.4): 0.922 ± 0.019 mPa·s
mass density (303.15 K, m1 = 0.1): 1002.56 ± 0.16 kg/m3
mass density (303.15 K, m1 = 0.2): 1009.33 ± 0.17 kg/m3
mass density (303.15 K, m1 = 0.2002): 1009.33 ± 0.18 kg/m3
mass density (303.15 K, m1 = 0.3): 1015.91 ± 0.17 kg/m3
mass density (303.15 K, m1 = 0.3141): 1015.91 ± 0.18 kg/m3
mass density (303.15 K, m1 = 0.4): 1022.39 ± 0.17 kg/m3
viscosity (313.15 K, m1 = 0.1): 0.677 ± 0.014 mPa·s
viscosity (313.15 K, m1 = 0.2): 0.699 ± 0.015 mPa·s
viscosity (313.15 K, m1 = 0.2002): 0.699 ± 0.015 mPa·s
viscosity (313.15 K, m1 = 0.3): 0.724 ± 0.015 mPa·s
viscosity (313.15 K, m1 = 0.3141): 0.724 ± 0.015 mPa·s
viscosity (313.15 K, m1 = 0.4): 0.751 ± 0.016 mPa·s
mass density (313.15 K, m1 = 0.1): 999.06 ± 0.16 kg/m3
mass density (313.15 K, m1 = 0.2): 1005.69 ± 0.16 kg/m3
mass density (313.15 K, m1 = 0.2002): 1005.69 ± 0.17 kg/m3
mass density (313.15 K, m1 = 0.3): 1012.2 ± 0.17 kg/m3
mass density (313.15 K, m1 = 0.3141): 1012.2 ± 0.18 kg/m3
mass density (313.15 K, m1 = 0.4): 1018.62 ± 0.17 kg/m3
viscosity (323.15 K, m1 = 0.1): 0.565 ± 0.012 mPa·s
viscosity (323.15 K, m1 = 0.2): 0.584 ± 0.012 mPa·s
viscosity (323.15 K, m1 = 0.2002): 0.584 ± 0.012 mPa·s
viscosity (323.15 K, m1 = 0.3): 0.603 ± 0.013 mPa·s
viscosity (323.15 K, m1 = 0.3141): 0.603 ± 0.013 mPa·s
viscosity (323.15 K, m1 = 0.4): 0.623 ± 0.013 mPa·s
mass density (323.15 K, m1 = 0.1): 994.78 ± 0.16 kg/m3
mass density (323.15 K, m1 = 0.2): 1001.31 ± 0.16 kg/m3
mass density (323.15 K, m1 = 0.2002): 1001.31 ± 0.17 kg/m3
mass density (323.15 K, m1 = 0.3): 1007.78 ± 0.17 kg/m3
mass density (323.15 K, m1 = 0.3141): 1007.78 ± 0.17 kg/m3
mass density (323.15 K, m1 = 0.4): 1014.08 ± 0.17 kg/m3

OC[C@@H](O)[C@@H](O)CO [meso-1,2,3,4-butanetetrol] + O
viscosity (293.15 K, m1 = 0.2002): 1.069 ± 0.022 mPa·s
viscosity (293.15 K, m1 = 0.4001): 1.134 ± 0.024 mPa·s
viscosity (293.15 K, m1 = 0.6001): 1.204 ± 0.025 mPa·s
viscosity (293.15 K, m1 = 0.7984): 1.278 ± 0.027 mPa·s
viscosity (293.15 K, m1 = 0.9998): 1.358 ± 0.028 mPa·s
mass density (293.15 K, m1 = 0.2002): 1005.26 ± 0.16 kg/m3
mass density (293.15 K, m1 = 0.4001): 1012.03 ± 0.17 kg/m3
mass density (293.15 K, m1 = 0.6001): 1018.54 ± 0.17 kg/m3
mass density (293.15 K, m1 = 0.7984): 1024.74 ± 0.17 kg/m3
mass density (293.15 K, m1 = 0.9998): 1030.79 ± 0.17 kg/m3
viscosity (303.15 K, m1 = 0.2002): 0.849 ± 0.018 mPa·s
viscosity (303.15 K, m1 = 0.4001): 0.895 ± 0.019 mPa·s
viscosity (303.15 K, m1 = 0.6001): 0.947 ± 0.02 mPa·s
viscosity (303.15 K, m1 = 0.7984): 1.001 ± 0.021 mPa·s
viscosity (303.15 K, m1 = 0.9998): 1.058 ± 0.022 mPa·s
mass density (303.15 K, m1 = 0.2002): 1002.58 ± 0.16 kg/m3
mass density (303.15 K, m1 = 0.4001): 1009.24 ± 0.17 kg/m3
mass density (303.15 K, m1 = 0.6001): 1015.65 ± 0.17 kg/m3
mass density (303.15 K, m1 = 0.7984): 1021.76 ± 0.17 kg/m3
mass density (303.15 K, m1 = 0.9998): 1027.73 ± 0.17 kg/m3
viscosity (313.15 K, m1 = 0.2002): 0.69 ± 0.014 mPa·s
viscosity (313.15 K, m1 = 0.4001): 0.727 ± 0.015 mPa·s
viscosity (313.15 K, m1 = 0.6001): 0.766 ± 0.016 mPa·s
viscosity (313.15 K, m1 = 0.7984): 0.806 ± 0.017 mPa·s
viscosity (313.15 K, m1 = 0.9998): 0.849 ± 0.018 mPa·s
mass density (313.15 K, m1 = 0.2002): 999.05 ± 0.16 kg/m3
mass density (313.15 K, m1 = 0.4001): 1005.61 ± 0.16 kg/m3
mass density (313.15 K, m1 = 0.6001): 1011.9 ± 0.17 kg/m3
mass density (313.15 K, m1 = 0.7984): 1017.92 ± 0.17 kg/m3
mass density (313.15 K, m1 = 0.9998): 1023.81 ± 0.17 kg/m3
viscosity (323.15 K, m1 = 0.2002): 0.576 ± 0.012 mPa·s
viscosity (323.15 K, m1 = 0.4001): 0.604 ± 0.013 mPa·s
viscosity (323.15 K, m1 = 0.6001): 0.634 ± 0.013 mPa·s
viscosity (323.15 K, m1 = 0.7984): 0.665 ± 0.014 mPa·s
viscosity (323.15 K, m1 = 0.9998): 0.698 ± 0.015 mPa·s
mass density (323.15 K, m1 = 0.2002): 994.8 ± 0.16 kg/m3
mass density (323.15 K, m1 = 0.4001): 1001.29 ± 0.16 kg/m3
mass density (323.15 K, m1 = 0.6001): 1007.55 ± 0.17 kg/m3
mass density (323.15 K, m1 = 0.7984): 1013.53 ± 0.17 kg/m3
mass density (323.15 K, m1 = 0.9998): 1019.39 ± 0.17 kg/m3
